Assay results published in patent US20260256925A1, “INDAZOLE DERIVATIVES AS ESTROGEN RECEPTOR DEGRADERS” (REGENTS OF THE UNIVERSITY OF MICHIGAN, priority 2022, published 2026).

Assays:
ER [1] = target: T1, ER (Homo sapiens, UniProt P03372); experiment: In-cell Western (ICW) ER degradation assay in T47D cells; format: cell-based; details: for Dmax: T47D, read-out: ER T47D ICW Dmax (%)
T1 construct: endogenous in cells; probably T47D or MCF-7
T1 sequence (P03372 1-595): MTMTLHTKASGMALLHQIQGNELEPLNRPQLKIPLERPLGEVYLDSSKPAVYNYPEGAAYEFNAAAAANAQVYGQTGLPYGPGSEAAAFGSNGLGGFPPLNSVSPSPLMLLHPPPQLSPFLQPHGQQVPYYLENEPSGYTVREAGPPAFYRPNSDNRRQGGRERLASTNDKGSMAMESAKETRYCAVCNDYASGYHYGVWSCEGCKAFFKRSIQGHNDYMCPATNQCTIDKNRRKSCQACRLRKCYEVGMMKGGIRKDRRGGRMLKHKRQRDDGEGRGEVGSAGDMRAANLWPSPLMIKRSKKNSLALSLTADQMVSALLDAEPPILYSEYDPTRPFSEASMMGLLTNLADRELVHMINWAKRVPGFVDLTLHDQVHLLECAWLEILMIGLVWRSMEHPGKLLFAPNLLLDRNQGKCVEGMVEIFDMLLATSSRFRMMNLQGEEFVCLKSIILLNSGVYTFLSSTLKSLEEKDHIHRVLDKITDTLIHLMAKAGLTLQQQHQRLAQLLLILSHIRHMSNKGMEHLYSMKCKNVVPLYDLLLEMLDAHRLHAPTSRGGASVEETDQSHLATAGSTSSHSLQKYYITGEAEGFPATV
Experimental: (§1) ERa degradative activity of compounds can be assessed in MCF-7 and T47D Cells. MCF-7 and T47D cell are seeded and are subsequently treated with the compounds at certain concentrations (e.g., 0.02 to 300 nM). DMSO can be used as vehicle control. Cells are fixed and are blocked with Intercept (PBS) Blocking Buffer (e.g., Li—COR, Odyssey Blocking Buffer), and are stained with ER (e.g., 1:500, Cell signaling) primary antibody for overnight at cold room. Secondary Antibody (e.g., IRDye 800CW Goat anti-Rabbit IgG) and CellTag 700 Stain are added in Intercept (PBS) Blocking Buffer. Finally, cell plate is placed in incubator to dry. Image and signal are captured on Odyssey® DLx Imaging System.
(§2) In-cell Western (ICW) assays in MCF-7 and T47D cell lines.
(§3) Procedures for ICW assays
(§4) In vitro Assay: MCF-7 and T47D ICW assay
(§5) Day 3: After 16 hrs of compounds treatment, cells were fixed by 4% PFA and permeabilized with elution buffer (0.1% Triton X-100 in 1% PBS Solution). Subsequently, cells were blocked with Intercept (PBS) Blocking Buffer (Li—COR, Odyssey Blocking Buffer), and were stained with ER (1:500, Cell signaling) primary antibody for overnight at cold room.
(§6) Day 4: Remove the buffer, add IRDye 800CW Goat anti-Rabbit IgG Secondary Antibody (1:2000) and CellTag 700 Stain (1:500) in Intercept (PBS) Blocking Buffer. Finally, cell plate is placed in incubator to dry. Image and signal were captured on Odyssey® DLx Imaging System.

ERα_LBD (GST) = target: T2, ERα_LBD (GST) (Homo sapiens, UniProt P03372); experiment: IC50 measurements for binding to ERα_LBD (GST), LanthaScreen TR-FRET ERα competitive binding assay; details: Fluormone ES2 Green tracer, 60 min, read-out: ERα HTRF IC50
T2 construct: ERα_LBD (GST) protein: 4 nM; purchased ThermoFisher A15887
T2 sequence (P03372 311-547 limits assumed): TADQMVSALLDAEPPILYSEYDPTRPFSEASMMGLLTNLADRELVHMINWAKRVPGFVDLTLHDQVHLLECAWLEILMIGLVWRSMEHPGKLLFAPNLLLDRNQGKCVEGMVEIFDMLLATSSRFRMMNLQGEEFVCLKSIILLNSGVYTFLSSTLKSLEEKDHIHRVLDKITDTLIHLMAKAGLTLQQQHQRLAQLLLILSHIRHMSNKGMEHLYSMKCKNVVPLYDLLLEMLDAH
Experimental: In vitro Assay: IC50 Measurements for binding to ERα_LBD (GST)·
Final assay conditions: • 1. ERα_LBD (GST) protein: 4 nM • 2. Tb Anti-GST: 2 nM • 3. Fluormone ES2 Green tracer: 3 nM • 4. Incubation time: 60 min • 5. DMSO: 1% • 6. Assay buffer: Adding 1M DTT to Nuclear receptor Buffer K for final 5 mM DTT. • 7. ZPE: 1% DMSO • 8. HPE: 1 μM ARV_471 • 9. LanthaScreen® TR-FRET ERα Competitive Binding Assay (ThermoFisher, #A^15887)
100× Compound preparation: • 1) Cherry pick 2 μL 10 mM compound stock to column 1 of a 384 intermediate plate • 2) Add 18 μL DMSO to column 1 to dilute compound to 1 mM. • 3) Transfer 10 μL 1 mM compound to column 1 of a LDV plate. • 2) Add 6 μl DMSO to column 2-10 of the LDV plate. • 3) Compounds undergo 3-fold serial dilution (3 μL+6 μL) in DMSO. • 4) Transfer 120 nL compound solution to assay plate.
Prepare complete nuclear receptor buffer K by adding 1 M DTT to nuclear receptor buffer K for a final concentration of 5 mM DTT. Complete nuclear receptor buffer K must be prepared fresh daily. Prepare 2× protein solution using complete nuclear receptor buffer K containing 8 nM ERα_LBD (GST) and 4 nM Tb Anti-GST. Then, prepare 2× Fluormone ES2 Green tracer (6 nM) using complete nuclear receptor buffer K. Add 6 μL 2× Fluormone ES2 green tracer into a compound plate (PerkinElmer 6008289) by dragonfly with one-tips-addition. Subsequently, add 6 μL 2× protein solution into the plate. Briefly and gently mix the 384-well plate on a plate shaker and incubate at room temperature protected from light for 60 min. The plate is sealed with a cover to minimize evaporation. Read the plate at wavelengths of 520 nm and 495 nm. Calculate the TR-FRET ratio by dividing the emission signal at 520 nm by the emission signal at 495 nm. Generate a binding curve by plotting the emission ratio vs. the log [ligand]. To determine the IC50 value, fit the data using XL-fit for a sigmoidal dose-response.

CRBN/DDB1 = target: T3, CRBN/DDB1 (Homo sapiens, UniProt Q96SW2); format: binding; details: HTRF, Cy5-labeled Thalidomide probe
T3 construct: purchased Wuxi RP210521GA
Experimental: The binding potency was determined using HTRF assay technology (Perkin Elmer). Compounds were serially diluted in DMSO and 0.2 μL volume was transferred to white 384-well plate.

ER [2] = target: T1, ER; experiment: In-cell Western (ICW) ER degradation assay in MCF-7 cells; format: cell-based; details: for DC50: read-out: ER MCF7 ICW DC50
Experimental: as §1, §2, §3, §4, §5, §6

[3] = MCF7, MCF-7 cells, 16 hrs, read-out: ER MCF7 ICW Dmax (%)
[4] = MCF7, read-out: ER MCF7 ICW Dmax (%)

T3 sequence (Q96SW2 whole entry): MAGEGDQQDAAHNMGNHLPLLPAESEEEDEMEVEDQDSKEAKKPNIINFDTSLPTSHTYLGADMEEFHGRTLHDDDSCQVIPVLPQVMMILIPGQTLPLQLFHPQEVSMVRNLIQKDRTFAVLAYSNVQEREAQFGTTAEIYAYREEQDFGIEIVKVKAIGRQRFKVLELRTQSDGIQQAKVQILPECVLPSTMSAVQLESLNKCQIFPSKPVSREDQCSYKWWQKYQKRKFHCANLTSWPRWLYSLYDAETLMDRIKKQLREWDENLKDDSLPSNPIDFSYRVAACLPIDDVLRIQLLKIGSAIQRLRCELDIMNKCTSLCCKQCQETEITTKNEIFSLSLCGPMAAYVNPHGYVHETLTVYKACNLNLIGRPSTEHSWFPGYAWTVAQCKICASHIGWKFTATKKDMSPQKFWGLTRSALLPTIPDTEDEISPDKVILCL
T3 sequence (Q16531 whole entry partner): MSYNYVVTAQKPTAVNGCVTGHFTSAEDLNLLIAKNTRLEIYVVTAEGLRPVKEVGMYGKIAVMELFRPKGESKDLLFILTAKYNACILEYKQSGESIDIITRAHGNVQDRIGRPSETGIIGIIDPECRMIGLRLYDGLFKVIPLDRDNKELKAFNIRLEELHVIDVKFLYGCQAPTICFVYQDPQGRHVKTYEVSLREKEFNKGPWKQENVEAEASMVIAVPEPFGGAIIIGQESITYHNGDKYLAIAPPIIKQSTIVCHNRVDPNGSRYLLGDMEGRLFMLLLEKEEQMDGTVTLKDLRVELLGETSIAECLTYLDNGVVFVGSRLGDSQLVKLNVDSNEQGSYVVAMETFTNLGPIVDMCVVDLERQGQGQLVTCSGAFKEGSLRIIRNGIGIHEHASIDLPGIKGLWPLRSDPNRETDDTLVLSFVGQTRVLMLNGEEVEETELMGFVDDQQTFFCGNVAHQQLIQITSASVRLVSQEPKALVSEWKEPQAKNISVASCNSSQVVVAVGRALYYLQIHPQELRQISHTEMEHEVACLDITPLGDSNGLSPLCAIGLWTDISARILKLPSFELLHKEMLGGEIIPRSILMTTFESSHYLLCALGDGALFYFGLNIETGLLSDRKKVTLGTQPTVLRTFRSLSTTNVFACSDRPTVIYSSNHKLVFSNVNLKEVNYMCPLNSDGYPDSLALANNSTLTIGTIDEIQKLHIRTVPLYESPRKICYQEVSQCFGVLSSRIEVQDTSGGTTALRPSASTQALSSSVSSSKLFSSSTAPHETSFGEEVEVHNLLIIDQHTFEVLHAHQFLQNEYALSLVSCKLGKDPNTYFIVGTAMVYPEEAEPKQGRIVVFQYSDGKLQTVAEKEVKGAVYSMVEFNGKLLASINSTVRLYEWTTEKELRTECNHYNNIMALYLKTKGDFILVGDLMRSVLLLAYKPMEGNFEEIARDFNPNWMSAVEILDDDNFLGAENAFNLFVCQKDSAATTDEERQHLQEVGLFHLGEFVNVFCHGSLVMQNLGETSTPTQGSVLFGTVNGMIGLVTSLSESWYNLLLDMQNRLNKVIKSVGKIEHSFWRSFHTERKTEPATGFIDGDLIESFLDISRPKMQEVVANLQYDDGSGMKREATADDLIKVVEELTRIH

Row | Structure (SMILES) | DC50 (ER [1]; T47D cells, 16 hrs) | Dmax (ER [1]; T47D cells, 16 hrs) | IC50 (ERα_LBD (GST)) | IC50 (CRBN/DDB1) | Dmax (ER [2]; [3]) | DC50 (ER [2]; MCF-7 cells, 16 hrs) | Dmax (ER [1]) | Dmax (ER [2]; [4]) | ER T47D ICW Dmax (%) (ER [1]; T47D cells, 16 hrs) | ER MCF7 ICW Dmax (%) (ER [2]; MCF-7 cells, 16 hrs)
1 | C[C@@H]1Cc2c(ccc3[nH]ncc23)[C@@H](c2ccc(N3CCC4(CC3)CC(CN3CCN5c6ccc7c(c6OC[C@H]5C3)CN([C@H]3CCC(=O)NC3=O)C7=O)CO4)nc2)N1CC(F)(F)F (stereo partly drawn) [Compound A22, (3S)-3-((5aR)-7-((8-(5-((6S,8R)-8-methyl-7-(2,2,2-trifluoroethyl)-6,7,8,9-tetrahydro-3H-pyrazolo[4,3-f]isoquinolin-6-yl)pyridin-2-yl)-1-oxa-8-azaspiro[4.5]decan-3-yl)methyl)-1-oxo-1,3,5,5a,6,7,8,9-octahydro-2H-pyrazino[1′,2′:4,5][1,4]oxazino[2,3-e]isoindol-2-yl)piperidine-2,6-dione] | < 1 nM | 50 to 75% | < 10 nM | 50 to 500 nM | 50 to 75% | < 1 nM |  |  |  | 
2 | C[C@@H]1Cc2c(ccc3[nH]ncc23)[C@@H](c2ccc(N3CCC4(CC3)CC(CN3CCC5(CC3)COc3cc6c(cc35)CN([C@H]3CCC(=O)NC3=O)C6=O)C4)cn2)N1CC1(F)CC1 [Compound A5, (S)-3-(1′-((7-(6-((6S,8R)-7-((1-fluorocyclopropyl)methyl)-8-methyl-6,7,8,9-tetrahydro-3H-pyrazolo[4,3-f]isoquinolin-6-yl)pyridin-3-yl)-7-azaspiro[3.5]nonan-2-yl)methyl)-7-oxo-5,7-dihydro-2H,6H-spiro[furo[2,3-f]isoindole-3,4′-piperidin]-6-yl)piperidine-2,6-dione] | < 1 nM |  | < 10 nM | 50 to 500 nM |  | < 1 nM | 50 to 75% | 50 to 75% |  | 
3 | C[C@@H]1Cc2c(ccc3[nH]ncc23)[C@@H](c2ccc(N3CC4(CCC(CN5CCN6c7ccc8c(c7OC[C@H]6C5)CN([C@H]5CCC(=O)NC5=O)C8=O)CC4)C3)cn2)N1CC1(F)CC1 [Compound A11, (S)-3-((R)-7-((2-(6-((6S,8R)-7-((1-fluorocyclopropyl)methyl)-8-methyl-6,7,8,9-tetrahydro-3H-pyrazolo[4,3-f]isoquinolin-6-yl)pyridin-3-yl)-2-azaspiro[3.5]nonan-7-yl)methyl)-1-oxo-1,3,5,5a,6,7,8,9-octahydro-2H-pyrazino[1′,2′: 4,5][1,4]oxazino[2,3-e]isoindol-2-yl)piperidine-2,6-dione] | < 1 nM | > 75% | ≥ 10 nM |  | > 75% | < 1 nM |  |  |  | 
4 | C[C@@H]1Cc2c(ccc3[nH]ncc23)[C@@H](c2ccc(N3CCC4(CC3)CC(CN3CCN5c6ccc7c(c6OC[C@H]5C3)CN([C@H]3CCC(=O)NC3=O)C7=O)C4)cn2)N1CC1(F)CC1 [Compound A4, (S)-3-((R)-7-((7-(6-((6S,8R)-7-((1-fluorocyclopropyl)methyl)-8-methyl-6,7,8,9-tetrahydro-3H-pyrazolo[4,3-f]isoquinolin-6-yl)pyridin-3-yl)-7-azaspiro[3.5]nonan-2-yl)methyl)-1-oxo-1,3,5,5a,6,7,8,9-octahydro-2H-pyrazino[1′,2′:4,5][1,4]oxazino[2,3-e]isoindol-2-yl)piperidine-2,6-dione] | < 1 nM | > 75% | < 10 nM | < 50 nM | 50 to 75% | < 1 nM |  |  |  | 
5 | COc1cc(N2CCC(CN3CCN4c5ccc6c(c5OCC4C3)CN(C3CCC(=O)NC3=O)C6=O)CC2)ccc1C1c2ccc3[nH]ncc3c2CC(C)N1CC(F)F (stereo in doubt) [Compound A8, (R)-3-((S)-7-((1-(4-((6R,8S)-7-(2,2-difluoroethyl)-8-methyl-6,7,8,9-tetrahydro-3H-pyrazolo[4,3-f]isoquinolin-6-yl)-3-methoxyphenyl)piperidin-4-yl)methyl)-1-oxo-1,3,5,5a,6,7,8,9-octahydro-2H-pyrazino[1′,2′:4,5][1,4]oxazino[2,3-e]isoindol-2-yl)piperidine-2,6-dione] | < 1 nM |  | ≥ 10 nM | 500 to 5000 nM |  | < 1 nM |  |  | A (“A”: >=75%) | A (“A”: >=75%)
6 | C[C@@H]1Cc2c(ccc3[nH]ncc23)[C@@H](c2ccc(N3CC4(CCC(CN5CCN6c7ccc8c(c7OC[C@H]6C5)CN(C5CCC(=O)NC5=O)C8=O)CC4)C3)cn2)N1CC1(F)CC1 (stereo partly drawn) [Compound A16, (S)-3-((R)-7-((2-(6-((6S,8R)-7-((1-fluorocyclopropyl)methyl)-8-methyl-6,7,8,9-tetrahydro-3H-pyrazolo[4,3-f]isoquinolin-6-yl)pyridin-3-yl)-2-azaspiro[3.5]nonan-7-yl)methyl)-1-oxo-1,3,5,5a,6,7,8,9-octahydro-2H-pyrazino[1′,2′: 4,5][1,4]oxazino[2,3-e]isoindol-2-yl)piperidine-2,6-dione] | < 1 nM | > 75% | < 10 nM |  |  | < 1 nM |  | > 75% |  | 
7 | C[C@@H]1Cc2c(ccc3[nH]ncc23)C(c2ccc(N3CCC4(CC3)CC(CN3CCN5c6ccc7c(c6OC[C@H]5C3)CN([C@H]3CCC(=O)NC3=O)C7=O)C4)nc2)N1CC(F)(F)F (stereo in doubt) [Compound A25, (S)-3-((R)-7-((7-(5-((6S,8R)-8-methyl-7-(2,2,2-trifluoroethyl)-6,7,8,9-tetrahydro-3H-pyrazolo[4,3-f]isoquinolin-6-yl)pyridin-2-yl)-7-azaspiro[3.5]nonan-2-yl)methyl)-1-oxo-1,3,5,5a,6,7,8,9-octahydro-2H-pyrazino[1′,2′: 4,5][1,4]oxazino[2,3-e]isoindol-2-yl)piperidine-2,6-dione] | < 1 nM | > 75% | < 10 nM |  |  | < 1 nM |  | > 75% |  | 
